Measured values reported in US10301271B2, “Crystalline forms of tyrosine kinase inhibitors and their salts” (PURDUE PHARMA L.P., priority 2014, dated 2019).

Columns and labels:
[1] = Solubility of the free acid; format: physicochemical
[2] = tested on: mechanical allodynia in CCI rats; test: Chronic constriction injury (CCI) model of neuropathic pain; format: in vivo, rat; details: for side effects observed in dosed CCI-rats (drowsiness, motor incoordination, other abnormality): single oral dose (gabapentin 100 mg/kg)
Description: The CCI model is one of the most commonly used mono-neuropathic pain model firstly described in details by Bennett and Xie (Bennett G J, Xie Y K. Pain. 1988; 33(1):87-107). It mimics important clinical chronic pain symptoms such as mechanical allodynia and thermal hyperalgesia. Chronic constriction injury of the sciatic nerve was produced by tying four loose ligatures around the left sciatic nerve according to the method of Bennett and Xie. […] Calibrated von Frey filaments were used to determine the lowest mechanical (tactile) threshold required to evoke a brisk paw withdrawal reflex in the rat hindpaws. Rats were allowed to acclimatize in wire mesh cages for 15-20 min prior to von Frey testing. Assessment of paw withdrawal thresholds (PWTs) using von Frey filaments was undertaken prior to CCI-surgery (pre-surgery baseline on day 0). Before the drug dosing on day 14, the pre-dose baseline was recorded for each rat. […] Drug-naïve CCI-rats (n=4-6 per group) were used. The oral (PO) gavage vehicle was either 10% (w/v) Povidone K25 in water for PO dosing, or 18% (w/v) CrosPovidone in water for PO dosing, or 0.5% CMC-Na/0.1% Tween 80 in distilled water for PO dosing. The positive control gabapentin was dissolved in the vehicle and orally given at 100 mg/kg (by oral gavage). Test article was dissolved or suspended in the vehicle and orally given at 25, 50, 100 and 150 mg/kg. Each CCI-rat was administered a single oral dose of test article, gabapentin or vehicle control, 2 hours before assessment of PWT.

[3] = tested on: human pancreatic cancer cells (PANC-1); test: Subcutaneous xenograft tumor mouse model; format: in vivo; details: oral 150 mg/kg, Day 7 postdose, p<0.02
[4] = Accelerated stability tests by XRPD and Raman; format: physicochemical; details: over 1 week
Method: Approximately 2 mg of sample was gently compressed on the XRPD zero back ground single obliquely cut silica sample holder. The sample was then loaded into a D/MAX 2200 X-ray powder diffractometer (Rigaku) or a Philips X-Pert MPD diffractometer and analyzed using the following experimental conditions (Tube anode: Cu; Generator tension: 40 kV; Tube current: 40 mA; Wavelength alpha1: 1.54056 Å; Wavelength alpha2: 1.5444 Å; Start angle [2 theta]: 5; End angle [2 theta]: 50; and Continuous scan). For suspected novel forms a slightly slower scan speed was used over a range of […].
Samples were analyzed by a Nicolet Almega XR Dispersive Raman Microscope for its Raman spectrum using the following conditions (Exposure Time: 1.0 s; Acquisition No: 10; Pinhole Size: […]; Wavelength range: 2000˜300 cm^−1 (single grating); Laser: He—Ne 780 nm 100% power, Objective: 20×/0.40 or 50×/0.75 (magnifier/numerical aperture number)). Then the measured Raman spectra were corrected by baseline subtraction using the software OMNIC™ v7.3.

TrkB = TrkB (Homo sapiens, UniProt Q16620); test: PathHunter live whole cell functional assay, BDNF stimulated TrkB activation; format: cell-based; details: triplicate
[5] = tested on: mechanical allodynia in SNL rats; test: Spinal nerve ligation (SNL) mono-neuropathic pain model; format: in vivo, rat; details: oral administration, dose-dependent
Method: The surgical procedure will be performed according to the method firstly described by Kim and Chung (Kim S H, Chung J M. Pain. 1992; 50(3):355-63.). This procedure will result in tactile allodynia in the left hindpaw. […] The dose-response anti-allodynia effects of test compound: on day 14 after surgery, rats were treated with test article at one of four doses, vehicle or positive control by oral gavage, and PWT was determined by calibrated von Frey filaments at time points of 0 (right before the drug dosing, Pre-Dose Baseline), 0.5, 1, 2, 4 and 6 hr. The anti-allodynia effects of repeated administration of test article: Administration of test article was started on day 7 after surgery, once a day for 7 days. PWT was determined by calibrated von Frey filaments, 2 hour after test article dosing each day. After 7 days dosing, the measurement were continued, every other day without compound dosing for another 7 days. PWT was determined at the time points as given above.

TrkA (human full length) = target: T1, TrkA (human full length) (Homo sapiens, UniProt P04629); test: PathHunter live whole cell functional assay, NGF stimulated TrkA activation; format: cell-based; details: U2OS cell background, mean of triplicate; read-out: cellular IC50, inhibition of NGF stimulated TrkA activation
T1 construct: expressed recombinantly on the intracellular C-terminus of TrkA (human full length); host or cells: U2OS
Description: There are several methods to measure whole length TrkA activation stimulated by its natural ligand or agonist NGF in live cells. For example, the PathHunter Profiling services offered by DiscoveRx (Fremont, Calif.). The PathHunter technology is an adaptation of enzyme fragment complementation that provides a novel, generic functional cell-based assay format for detecting protein-protein interactions. In this cell-based assay approach, with U2OS cell background, a small peptide epitope (PK) is expressed recombinantly on the intracellular C-terminus of TrkA (human full length). This is co-expressed with a larger sequence, termed enzyme acceptor (EA) that is attached to a cytoplasmic protein SHC1 which will interact with TrkA intracellularly. NGF induced activation of TrkA receptor causes either homo- or hetero-dimerization of TrkA resulting in cross-phosphorylation. The SHC1-EA fusion protein then binds the phosphorylated TrkA receptor forcing complementation of the PK and EA fragment. This interaction generates an active beta-galactosidase enzyme, which is detected using a chemiluminescent substrate.

[6] = tested on: human liver cancer cells SK-HEP-1 and HepG2; test: Cell viability and proliferation assay (CellTiter-Glo), liver cancer cells; format: cell-based; details: 24 h or 48 h or 96 h incubation
Method: (§1) To assess the chemosensitivity of tumor cells, cell viability is measured by CellTiter-Glo® Luminescent Cell Viability Assay (Promega; WI, USA) per the manufacturer's instruction. Briefly, […] to 7×10^5 cells/ml are cultured in sterile 96-well plates in the presence of increasing concentrations of the drugs (test article, 0 to 100 μM), or vehicle in RPMI medium. The plates are then incubated for 24 to 96 h, and then 100 μl of CellTiter-Glo reagent is added to lyse the cells. After a 10-min incubation at room temperature, the luminescence is recorded in a luminometer with an integration time of 1 s per well. The luminescence signals for the drug-treated cells are normalized by the luminescence signal obtained from vehicle-treated cells. As an alternative method to quantitate cell viability, the trypan blue exclusion dye method was used. Vehicle- or drug-treated cells were assayed by adding trypan blue solution (0.4% in phosphate-buffered saline [PBS]) to the culture medium. After 3 min, the number of dead cells that retained the dye is compared to the total number of cells to calculate cell viability. GraphPad Prism 5 software is used to calculate IC50 and plot effect-dose curve of drugs. Multiplate reader: EnVision 2104 (PerkinElmer). % of control variability=100*[(X(drug_treated)−L(baseline))/(H(vehicle_control)−L(baseline))]. […]

[7] = Rat pharmacokinetics (plasma and brain, LC-MS/MS); format: in vivo; details: PO, 100 mg/kg, mean
Method: Compound I was dosed to nonfasted male CD IGS rats (weighting 180-250 g, Charles River Laboratories) by single intravenous (IV, n=3/group) or oral gavage (PO, n=4/group, including control rat group for drug-free blood and brain collection) administration at a nominal dose levels of 3 mg/kg (IV) or 5 mg/kg (IV) and 10, 50, 100 mg/kg (PO) respectively. Compound was formulated in either DMSO/Solutol: HS 15/phosphate buffered saline, pH 7.4 (PBS) for both IV and PO dosing, or 10% (w/v) Povidone K12 in water for IV dosing or 10% (w/v) Povidone K25 in water for PO dosing, or 18% (w/v) CrosPovidone in water for PO dosing. An intravenous profile was obtained by taking serial or terminal blood samples at 3, 10, 30, 60, 120, 240, 360, 1440 min post dose. An oral profile was obtained by taking serial or terminal blood samples at 10, 30, 60, 120, 240, 360, 480, 1440 min post dose.
Plasma Sample Collection from Rats. Animals were sedated under general inhalant anesthesia (3% isoflurane) for blood collection by cardiac puncture. […]
Plasma and brain samples were subjected to quantitative analysis by LC-MS/MS using compound-specific mass transitions. […] The concentrations of the test compound in brain (ng/g brain tissue) and in plasma (ng/mL) as well as the ratio of the brain concentration and the plasma concentration at each time point were determined and reported.

TrkC = TrkC (Homo sapiens, UniProt Q16288); test: PathHunter live whole cell functional assay, NT3 stimulated TrkC activation; format: cell-based; details: triplicate
[8] = tested on: human pancreatic cancer cells AsPC-1, MIA PaCa-2, BxPC-3, Capan-1 and Panc-1; test: Cell viability and proliferation assay (CellTiter-Glo), pancreatic cancer cells; format: cell-based; details: 24 h or 48 h or 96 h incubation
Method: as §1

[9] = tested on: CFA-induced inflammatory pain; test: Rat CFA-induced inflammatory pain model; format: in vivo; details: 50 μL of 1 mM s.c. into the paw 3 hours after CFA
Method: Hyperalgesia was induced by subcutaneously injecting 50 μL of CFA (Sigma-Aldrich, St. Louis, Mo., USA) into the plantar surface of the left hind paw of the rats using a 30-gauge hypodermic needle under sevoflurane anesthesia. The classical signs of inflammation, including edema and redness, for up the last day of tests were recorded. To assess the effect of test article on CFA-induced inflammatory pain, the rats were anesthetized with sevoflurane 3 hours after CFA injection and then injected 50 μL of either 1 mM test article (n=6) or Saline (n=4) subcutaneously (S.C.) into the same site as the CFA injection, using a 30-gauge hypodermic needle under sevoflurane anesthesia, according to published method (Ueda K., et al, J Pharmacol. Sci., 2010; 112(4):438-43). Paw withdrawal latencies (thermal hyperalgesia) are measured before and at […] 2, 4, and 7 days after CFA injection. Mechanical thresholds were also measured in the same way with either Formula 1 compound (n=6) or Saline (n=4) at similar different time points (for example, 1, 3 hour and 3 days). The noxious heat and mechanical thresholds were separately measured in each group of rats. The threshold was measured 3-5 times in each rat and then averaged. Stimulus interval was 5 min.

[10] = tested on: human stomach cancer cells NCI-N87; test: Cell viability and proliferation assay (CellTiter-Glo), stomach cancer cells; format: cell-based; details: 24 h or 48 h or 96 h incubation
Method: as §1

Chain of TrkB (Q16620 32-822): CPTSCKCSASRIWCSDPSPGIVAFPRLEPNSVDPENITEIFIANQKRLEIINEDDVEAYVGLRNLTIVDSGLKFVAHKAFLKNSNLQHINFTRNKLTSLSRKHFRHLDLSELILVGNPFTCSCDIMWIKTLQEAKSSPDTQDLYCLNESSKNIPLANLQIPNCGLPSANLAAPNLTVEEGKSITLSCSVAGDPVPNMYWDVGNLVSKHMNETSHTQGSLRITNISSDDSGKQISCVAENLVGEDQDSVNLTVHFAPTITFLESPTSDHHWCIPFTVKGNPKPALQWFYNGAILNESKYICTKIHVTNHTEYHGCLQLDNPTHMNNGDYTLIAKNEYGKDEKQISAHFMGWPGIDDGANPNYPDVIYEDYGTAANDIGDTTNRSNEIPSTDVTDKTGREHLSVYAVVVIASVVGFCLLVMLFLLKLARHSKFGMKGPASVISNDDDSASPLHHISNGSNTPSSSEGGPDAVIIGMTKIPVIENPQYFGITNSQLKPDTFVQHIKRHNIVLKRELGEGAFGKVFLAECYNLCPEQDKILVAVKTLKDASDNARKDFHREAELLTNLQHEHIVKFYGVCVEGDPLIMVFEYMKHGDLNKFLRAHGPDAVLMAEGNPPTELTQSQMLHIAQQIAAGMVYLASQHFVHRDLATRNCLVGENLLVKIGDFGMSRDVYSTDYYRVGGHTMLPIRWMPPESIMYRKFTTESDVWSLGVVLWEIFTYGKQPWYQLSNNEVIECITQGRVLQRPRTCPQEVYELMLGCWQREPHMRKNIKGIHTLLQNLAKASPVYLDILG
T1 sequence (P04629 33-796): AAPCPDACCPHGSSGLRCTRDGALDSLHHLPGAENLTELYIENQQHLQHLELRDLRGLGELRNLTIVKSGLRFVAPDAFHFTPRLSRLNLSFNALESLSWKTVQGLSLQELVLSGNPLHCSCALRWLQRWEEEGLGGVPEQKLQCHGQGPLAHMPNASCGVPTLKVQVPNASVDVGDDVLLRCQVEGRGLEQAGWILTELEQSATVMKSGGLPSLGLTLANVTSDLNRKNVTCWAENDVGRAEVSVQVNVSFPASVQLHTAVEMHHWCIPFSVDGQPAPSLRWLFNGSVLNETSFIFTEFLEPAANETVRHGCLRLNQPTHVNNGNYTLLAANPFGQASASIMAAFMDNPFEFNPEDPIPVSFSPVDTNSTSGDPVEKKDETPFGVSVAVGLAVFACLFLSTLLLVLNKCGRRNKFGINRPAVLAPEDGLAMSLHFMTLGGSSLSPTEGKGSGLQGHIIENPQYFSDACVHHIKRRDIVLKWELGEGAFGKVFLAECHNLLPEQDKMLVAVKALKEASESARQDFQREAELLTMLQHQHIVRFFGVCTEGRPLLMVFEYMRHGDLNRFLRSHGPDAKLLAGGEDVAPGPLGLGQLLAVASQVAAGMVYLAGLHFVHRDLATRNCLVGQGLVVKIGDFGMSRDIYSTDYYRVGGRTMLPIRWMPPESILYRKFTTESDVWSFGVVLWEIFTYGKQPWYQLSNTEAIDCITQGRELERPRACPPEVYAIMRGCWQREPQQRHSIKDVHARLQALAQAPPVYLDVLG
Chain of TrkC (Q16288 32-839): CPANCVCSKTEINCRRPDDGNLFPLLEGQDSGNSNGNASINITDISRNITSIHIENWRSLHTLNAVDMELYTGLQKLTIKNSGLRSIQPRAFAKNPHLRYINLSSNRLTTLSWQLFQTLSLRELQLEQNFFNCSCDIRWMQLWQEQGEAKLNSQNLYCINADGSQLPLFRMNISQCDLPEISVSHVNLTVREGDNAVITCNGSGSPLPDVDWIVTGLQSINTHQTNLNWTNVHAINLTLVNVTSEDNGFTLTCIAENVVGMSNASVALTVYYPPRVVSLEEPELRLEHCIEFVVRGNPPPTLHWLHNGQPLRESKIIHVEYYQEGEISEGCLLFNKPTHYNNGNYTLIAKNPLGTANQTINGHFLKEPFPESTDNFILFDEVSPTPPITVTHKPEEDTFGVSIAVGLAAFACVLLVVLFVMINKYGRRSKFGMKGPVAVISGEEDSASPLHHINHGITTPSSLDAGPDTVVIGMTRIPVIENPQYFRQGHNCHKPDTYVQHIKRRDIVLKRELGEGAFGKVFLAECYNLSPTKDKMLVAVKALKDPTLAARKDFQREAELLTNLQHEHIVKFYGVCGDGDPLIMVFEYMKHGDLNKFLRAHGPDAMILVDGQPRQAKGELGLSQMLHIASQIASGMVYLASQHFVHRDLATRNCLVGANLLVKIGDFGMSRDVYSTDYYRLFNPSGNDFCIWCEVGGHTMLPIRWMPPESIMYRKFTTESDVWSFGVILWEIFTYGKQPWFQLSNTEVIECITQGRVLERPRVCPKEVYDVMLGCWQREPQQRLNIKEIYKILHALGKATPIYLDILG

Structure (SMILES) | solubility [1] | reduction of mechanical allodynia (paw withdrawal threshold, von Frey, FIG. 2) ([2]; single oral dose 25, 50, 100 and 150 mg/kg, 2 hours before assessment, dose-dependent) | side effects observed in dosed CCI-rats (drowsiness, motor incoordination, other abnormality) [2] | tumor volume reduction compared to vehicle treated group [3] | solid-state stability by XRPD and Raman ([4]; 40° C./75% RH) | solid-state stability by XRPD and Raman ([4]; 80° C.) | IC50 (TrkB) [µM] | reduction of mechanical allodynia (paw withdrawal threshold, von Frey) [5] | IC50 (TrkA (human full length)) [µM] | IC50 [6] [µM] | F [7] [%] | IC50 (TrkC) [µM] | IC50 [8] [µM] | analgesic effect (thermal and mechanical thresholds, FIG. 1) [9] | IC50 [10] [µM]
O=C(O)c1ccc(Nc2cc(N3CCN(C4CCCCC4)CC3)c3noc4c3c2C(=O)c2ccccc2-4)cc1 [Compound 701, 4-((3-(4-cyclohexylpiperazin-1-yl)-6-oxo-6H-anthra[1,9-cd]isoxazol-5-yl)amino)benzoic acid] | limited solubility |  |  |  |  |  |  |  |  |  |  |  |  |  | 
O=C([O-])c1ccc(Nc2cc(N3CCN(C4CCCCC4)CC3)c3noc4c3c2C(=O)c2ccccc2-4)cc1.[Na+] [Compound I, Sodium 4-((3-(4-cyclohexylpiperazin-1-yl)-6-oxo-6H-anthra[1,9-cd]isoxazol-5-yl)amino)benzoate] |  | significantly reduced mechanical allodynia | no such effect or other abnormality was observed | more than 21% | no instability | no instability | > 10 | significantly reduced mechanical allodynia | ~0.05 | 2 to 8 | ~100 | > 10 | 2 to 5 | efficacious in relieving the pain | ~7
NCC1(CC(=O)O)CCCCC1 [gabapentin, reference compound] |  |  | drowsiness or motor incoordination |  |  |  |  |  |  |  |  |  |  |  | 
